Each structure is given as a SMILES string. pIC50: −log10 of the molar value.

Consider five compounds from patent publication US20250171463A1 (BIOGEN MA INC., priority 2022, published 2025).

The target of the assay is T1, EBP (Homo sapiens, UniProt Q15125).
T1 construct: HEK293T cells were utilized as the source of EBP enzyme; endogenous in cells; host or cells: HEK293T
T1 sequence (Q15125 whole entry): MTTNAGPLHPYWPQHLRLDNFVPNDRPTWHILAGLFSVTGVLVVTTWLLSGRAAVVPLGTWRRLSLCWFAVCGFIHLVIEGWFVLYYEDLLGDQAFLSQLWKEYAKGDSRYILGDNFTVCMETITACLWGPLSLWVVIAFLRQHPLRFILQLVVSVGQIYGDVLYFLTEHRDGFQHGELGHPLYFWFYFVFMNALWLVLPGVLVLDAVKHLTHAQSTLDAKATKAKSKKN
The assay is described as follows: EBP Functional Assay (EBP immunoaffinity LC-MS assay). Format: biochemical. As to conditions: EBP enzyme from HEK293T cells; 30 min with inhibitor, then zymosterol-d5, 37° C., 4 h; percent conversion to dehydrolathosterol-d5 by LC-APCI MRM MS. In short, it runs like this:
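HEK293T cells served as EBP source; enzyme preincubated 30 min with inhibitor dilutions, then zymosterol-d5 substrate added and incubated 4 h at 37° C. Sterols extracted and quantified by LC-APCI MRM MS; percent conversion to […] fit to 4-parameter logistic for IC50. Tasin-1 reference inhibitor.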
By pIC50 is commonly meant −log10 of the IC50, conventionally taken in molar units. Higher therefore signals a low IC50. As for `O=S(=O)(c1c(F)cc(OC(F)F)cc1F)N1CC2(CN(CC3CCOCC3)C2)C1` [Example 225, 2-((4-(difluoromethoxy)-2,6-difluorophenyl)sulfonyl)-6-((tetrahydro-2H-pyran-4-yl)methyl)-2,6-diazaspiro[3.3]heptane], the pIC50 was 5.40 to 6.60. Then `O=S(=O)(c1ccc(OC(F)F)cc1F)N1CC2(CN(CC3CCOCC3)C2)C1` [Example 226, 2-((4-(difluoromethoxy)-2-fluorophenyl)sulfonyl)-6-((tetrahydro-2H-pyran-4-yl)methyl)-2,6-diazaspiro[3.3]heptane], with 5.40 to 6.60; and `O=S(=O)(c1ccc(OC(F)F)cc1F)N1CC2(CN(C3CCOCC3)C2)C1` [Example 227, 2-((4-(difluoromethoxy)-2-fluorophenyl)sulfonyl)-6-(tetrahydro-2H-pyran-4-yl)-2,6-diazaspiro[3.3]heptane], with 6.60 to 7.00. Then `N#Cc1cc(C(F)(F)F)ccc1S(=O)(=O)N1CC2(CN(CC3CCOCC3)C2)C1` [Example 228, 2-((6-((tetrahydro-2H-pyran-4-yl)methyl)-2,6-diazaspiro[3.3]heptan-2-yl)sulfonyl)-5-(trifluoromethyl)benzonitrile], with 5.40 to 6.60.

Compound `O=S(=O)(c1ccc(C(F)(F)F)nc1)N1CC2(CN(CC3CCOCC3)C2)C1` [Example 229, 2-((tetrahydro-2H-pyran-4-yl)methyl)-6-((6-(trifluoromethyl)pyridin-3-yl)sulfonyl)-2,6-diazaspiro[3.3]heptane] showed a pIC50 of 5.40 to 6.60.
